13 compounds from ChEMBL document CHEMBL1201862, “PubChem BioAssay data set” (2004) can be followed below.

Active and inactive are the calls of the source.

Assay [1] has as its target Luciferin 4-monooxygenase (Photinus pyralis, UniProt P08659). Put plainly: inhibition of purified Photinus pyralis luciferase – biochemical, luminescence, dose response (AID 1891).
Assay [2] in a line: Luminescence Cell-Based Dose Confirmation HTS to Identify Inhibitors of Platelet Dense Granule Release. [Related pubchem assays: 1663 (Primary HTS), 1678 (Summary of Project)]. In kind it is functional.
Assay [3] can be described thus: toxicity to human hepatoma HepG2 cells – cell-based, cherry-picked samples, cytotoxicity control, dose response (AID 1159577). In kind it is functional.
The target in assay [4] is T1, Heat shock factor protein 1 (Mus musculus, UniProt P38532).
T1 sequence (P38532 whole entry): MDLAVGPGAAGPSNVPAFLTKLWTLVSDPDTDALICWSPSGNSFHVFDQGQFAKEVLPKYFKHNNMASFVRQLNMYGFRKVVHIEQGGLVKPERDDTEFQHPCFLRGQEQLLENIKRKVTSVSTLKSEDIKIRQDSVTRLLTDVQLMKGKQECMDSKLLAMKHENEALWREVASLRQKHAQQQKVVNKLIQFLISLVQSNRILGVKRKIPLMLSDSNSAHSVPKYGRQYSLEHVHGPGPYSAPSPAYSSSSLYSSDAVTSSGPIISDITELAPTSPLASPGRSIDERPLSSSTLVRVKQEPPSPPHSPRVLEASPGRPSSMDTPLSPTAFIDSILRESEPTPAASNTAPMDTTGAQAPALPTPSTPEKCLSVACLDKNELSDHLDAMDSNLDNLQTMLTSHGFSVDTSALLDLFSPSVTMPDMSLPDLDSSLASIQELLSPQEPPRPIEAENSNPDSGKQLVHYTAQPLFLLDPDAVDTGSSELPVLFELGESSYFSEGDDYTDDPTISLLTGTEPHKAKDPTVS
Put plainly: decrease of HSF1-responsive luciferase luminescence – cell-based, NIH3T3, dose retest, confirmation (AID 2382).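 Further: NIH3T3 fibroblasts with HSF1-driven luciferase reporter stressed by proteasome inhibitor MG132; luminescence from HSF1-driven luciferase expression after 8 hours of MG132 stress.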 In kind it is functional.

Assay [5] in a line: toxicity toward HepG2 liver cells – cell-based, plate reader, cherry-pick, antagonist series, cytotoxicity control, dose response (AID 743416). In kind it is functional.
The target of assay [6] is T2, Replicative DNA helicase DnaB (Mycobacterium tuberculosis, UniProt P9WMR3).
T2 sequence (P9WMR3 whole entry): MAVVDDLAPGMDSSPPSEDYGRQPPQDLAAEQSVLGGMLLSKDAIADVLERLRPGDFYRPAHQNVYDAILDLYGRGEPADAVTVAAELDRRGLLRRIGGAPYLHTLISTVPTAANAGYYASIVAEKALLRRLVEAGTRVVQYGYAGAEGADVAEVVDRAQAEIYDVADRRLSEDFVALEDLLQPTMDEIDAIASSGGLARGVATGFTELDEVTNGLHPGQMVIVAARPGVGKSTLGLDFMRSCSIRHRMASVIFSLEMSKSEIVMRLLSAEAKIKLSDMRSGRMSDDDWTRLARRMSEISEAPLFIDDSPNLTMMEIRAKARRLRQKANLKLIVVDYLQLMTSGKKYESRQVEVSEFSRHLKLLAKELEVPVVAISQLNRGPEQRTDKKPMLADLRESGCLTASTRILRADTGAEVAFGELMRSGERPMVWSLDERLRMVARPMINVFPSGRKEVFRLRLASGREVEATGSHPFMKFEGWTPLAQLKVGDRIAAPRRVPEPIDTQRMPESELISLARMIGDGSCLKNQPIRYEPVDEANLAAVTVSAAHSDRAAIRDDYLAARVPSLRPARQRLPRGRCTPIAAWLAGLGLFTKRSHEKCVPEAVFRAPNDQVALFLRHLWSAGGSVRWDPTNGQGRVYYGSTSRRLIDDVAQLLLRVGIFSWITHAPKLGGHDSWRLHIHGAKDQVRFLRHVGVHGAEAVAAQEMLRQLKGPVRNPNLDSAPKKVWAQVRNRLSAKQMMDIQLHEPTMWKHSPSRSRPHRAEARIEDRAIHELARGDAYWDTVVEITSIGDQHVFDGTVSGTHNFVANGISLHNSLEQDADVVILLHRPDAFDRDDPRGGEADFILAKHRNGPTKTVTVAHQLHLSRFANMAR
Put plainly: DnaB intein splicing inhibitors, dose response, biochemical, cell-free fluorescence (AID 449749). Type of assay: functional.

Assay [7] is described as follows: viability loss in HEK293 cells – cell-based, plate reader, cherry-picked samples, cytotoxicity control, dose response (AID 743446). Type of assay: functional.
Another assay concerns the target T3, Protein RecA (Mycobacterium tuberculosis, UniProt P9WHJ3).
T3 sequence (P9WHJ3 whole entry): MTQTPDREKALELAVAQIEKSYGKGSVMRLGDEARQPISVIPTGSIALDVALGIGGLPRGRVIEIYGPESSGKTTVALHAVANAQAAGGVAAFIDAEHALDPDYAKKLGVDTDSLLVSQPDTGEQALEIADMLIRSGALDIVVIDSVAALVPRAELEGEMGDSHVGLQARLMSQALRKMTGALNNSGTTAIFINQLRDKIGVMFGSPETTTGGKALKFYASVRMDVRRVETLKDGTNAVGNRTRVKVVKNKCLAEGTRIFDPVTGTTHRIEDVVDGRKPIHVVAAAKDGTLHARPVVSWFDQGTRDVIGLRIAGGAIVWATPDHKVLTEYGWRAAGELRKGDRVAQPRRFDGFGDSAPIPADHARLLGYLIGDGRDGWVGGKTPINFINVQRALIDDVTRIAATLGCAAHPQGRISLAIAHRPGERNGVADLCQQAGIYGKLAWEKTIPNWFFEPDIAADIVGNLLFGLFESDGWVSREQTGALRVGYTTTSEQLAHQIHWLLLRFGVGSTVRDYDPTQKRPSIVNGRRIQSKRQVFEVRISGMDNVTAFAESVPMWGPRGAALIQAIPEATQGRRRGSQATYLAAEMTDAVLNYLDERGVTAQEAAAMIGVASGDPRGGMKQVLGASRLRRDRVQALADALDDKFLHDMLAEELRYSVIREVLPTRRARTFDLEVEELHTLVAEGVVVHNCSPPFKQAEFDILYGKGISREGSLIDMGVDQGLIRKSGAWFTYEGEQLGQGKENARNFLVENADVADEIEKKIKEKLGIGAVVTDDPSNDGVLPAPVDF
Put plainly: Fluorescence Cell-Free Homogeneous Dose Retest to Identify Inhibitors of RecA-Intein Splicing Activity. [Related pubchem assays (depositor defined):AID2097, AID2223, AID489010, AID492950]. Type of assay: functional.

Assay [8] in a line: Luminescence Cell-Based Dose Retest to Confirm Inhibitors of Cancer Stem Cells. [Related pubchem assays (depositor defined):AID2717, AID2721]. Type of assay: functional. The note with it: Homo sapiens.
In a further assay the test system is INS1. Put plainly: INS-1E survival protection against cytokine death – cell-based, luminescence, retest, dose response (AID 449756).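 Further: cell death triggered by IL-1 beta plus TNF-alpha plus IFN-gamma mixture; protective hits raise ATP signal compared with cytokine alone wells.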 In kind it is functional. The note with it: Rattus norvegicus.
Assay [9] in a line: NIH-3T3 fibroblast cytotoxicity, dose response, cytotoxicity control, cell-based, fluorescence, Alamar Blue, secondary assay (AID 2327).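 Further: NIH-3T3 mouse fibroblasts cultured with fluconazole at 8 µg/mL.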 Type of assay: functional.
Assay [10] can be described thus: fluconazole-exposed Candida albicans growth modulators – fluorescence, retest, confirmation (AID 2467). Type of assay: functional, cell-based.
The target in assay [11] is ATP-dependent molecular chaperone HSP82 (Candida albicans (strain WO-1) (Yeast), UniProt C4YTQ8). Put plainly: steroid-induced GRE reporter decrease in yeast – S. cerevisiae, luminescence, Hsp90 inhibitor project, dose response (AID 2400).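 Further: beta-galactosidase luminescence from glucocorticoid response element reporter as proxy for Hsp90 function; inhibitor potency where signal loss means Hsp90 inhibition.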 Type of assay: functional, cell-based.
Assay [12] addresses T4, Serine/threonine-protein phosphatase (Candida dubliniensis (strain CD36 / CBS 7987 / NCPF 3949 / NRRLY-17841) (Yeast), UniProt B9W6M3).
T4 sequence (B9W6M3 whole entry): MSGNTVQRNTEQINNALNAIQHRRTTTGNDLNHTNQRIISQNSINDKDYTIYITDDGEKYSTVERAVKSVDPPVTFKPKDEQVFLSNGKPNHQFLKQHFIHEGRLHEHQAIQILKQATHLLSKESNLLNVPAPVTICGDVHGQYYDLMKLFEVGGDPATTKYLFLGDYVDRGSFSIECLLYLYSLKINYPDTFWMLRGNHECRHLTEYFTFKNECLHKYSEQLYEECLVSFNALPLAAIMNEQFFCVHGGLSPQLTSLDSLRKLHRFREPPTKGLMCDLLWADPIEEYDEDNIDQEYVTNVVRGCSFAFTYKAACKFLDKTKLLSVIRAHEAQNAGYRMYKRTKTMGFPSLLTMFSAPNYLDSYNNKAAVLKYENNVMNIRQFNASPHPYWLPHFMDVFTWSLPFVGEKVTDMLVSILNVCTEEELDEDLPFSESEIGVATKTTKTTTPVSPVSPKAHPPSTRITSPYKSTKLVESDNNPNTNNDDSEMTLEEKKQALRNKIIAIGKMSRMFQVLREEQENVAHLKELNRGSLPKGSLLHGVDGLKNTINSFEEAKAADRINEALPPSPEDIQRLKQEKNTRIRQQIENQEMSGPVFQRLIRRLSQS
In words: blockers of CaCl2-induced CDRE-lacZ signaling – S. cerevisiae, luminescence, secondary, dose response (AID 2388).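 Further: yeast reporter cells carrying a calcineurin-responsive lacZ construct stimulated with calcium chloride; luminescent beta-galactosidase reporter signal in whole cells rather than isolated phosphatase activity; potency for inhibition where a drop in reporter signal means calcineurin blockade.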 Type of assay: functional, cell-based.

A short description of assay [13]: P. falciparum Dd2 growth inhibitors, dose response, SYBR Green, cherry-picked samples (AID 1159567). In kind it is functional, cell-based.
In assay [14] the target is Glyceraldehyde-3-phosphate dehydrogenase (Homo sapiens, UniProt P04406).
The test system of assay [15] is HEK293. Put plainly: inhibition of NOD1-driven NF-kB reporter – cell-based, luminescence, uHTS, primary screen (AID 1578). Type of assay: functional. The note with it: Homo sapiens.
A short description of assay [16]: loss of viability in HepG2 cells – cell-based, CellTiter-Glo, cherry-picked, cytotoxicity control for Shn3 inhibitor project, dose response (AID 624134). In kind it is functional.
Assay [17] in a line: non-specific 3'UTR reporter inhibition in Clone20-Shn3RL – cell-based, Renilla luciferase, cherry-picked, counter-screen for Shn3 inhibitor project, dose response (AID 624133). Type of assay: functional.
Assay [18] is described as follows: reduction of Shn3 3'UTR-driven luciferase in osteoblasts – cell-based, Clone20 osteoblasts, firefly luciferase, cherry-picked, dose response (AID 624132).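 Further: firefly luciferase luminescence from reporter carrying the Shn3 3'UTR in osteoblasts.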 In kind it is functional.
The subject of assay [19] is HEK293. In words: cells. In kind it is functional, cell-based. The note with it: Homo sapiens.
For assay [20], the system named is HEK293. In words: cells. Type of assay: functional, cell-based. As to conditions: Homo sapiens. This is another data set of the same source.
Assay [21] deals with HEK293. Put plainly: NOD2 signaling inhibitors in MDP-stimulated cells, cell-based, uHTS, luminescence (AID 2001). In kind it is functional. The note with it: Homo sapiens.

Chain of Luciferin 4-monooxygenase (P08659 whole entry): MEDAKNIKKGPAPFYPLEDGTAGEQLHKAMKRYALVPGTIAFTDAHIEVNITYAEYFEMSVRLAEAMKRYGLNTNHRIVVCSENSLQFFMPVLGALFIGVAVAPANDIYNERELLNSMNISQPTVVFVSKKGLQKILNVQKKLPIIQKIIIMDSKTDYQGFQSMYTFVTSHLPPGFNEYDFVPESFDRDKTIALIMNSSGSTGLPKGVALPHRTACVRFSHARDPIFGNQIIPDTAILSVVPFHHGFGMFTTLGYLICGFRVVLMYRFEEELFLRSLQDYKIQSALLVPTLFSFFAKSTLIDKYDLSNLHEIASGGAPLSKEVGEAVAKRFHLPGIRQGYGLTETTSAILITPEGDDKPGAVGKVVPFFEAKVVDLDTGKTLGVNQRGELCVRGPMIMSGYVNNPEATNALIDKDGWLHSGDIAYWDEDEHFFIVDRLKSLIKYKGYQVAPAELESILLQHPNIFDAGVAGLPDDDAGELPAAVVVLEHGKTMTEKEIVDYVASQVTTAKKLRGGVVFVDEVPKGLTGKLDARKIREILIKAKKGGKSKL
Chain of ATP-dependent molecular chaperone HSP82 (C4YTQ8 whole entry): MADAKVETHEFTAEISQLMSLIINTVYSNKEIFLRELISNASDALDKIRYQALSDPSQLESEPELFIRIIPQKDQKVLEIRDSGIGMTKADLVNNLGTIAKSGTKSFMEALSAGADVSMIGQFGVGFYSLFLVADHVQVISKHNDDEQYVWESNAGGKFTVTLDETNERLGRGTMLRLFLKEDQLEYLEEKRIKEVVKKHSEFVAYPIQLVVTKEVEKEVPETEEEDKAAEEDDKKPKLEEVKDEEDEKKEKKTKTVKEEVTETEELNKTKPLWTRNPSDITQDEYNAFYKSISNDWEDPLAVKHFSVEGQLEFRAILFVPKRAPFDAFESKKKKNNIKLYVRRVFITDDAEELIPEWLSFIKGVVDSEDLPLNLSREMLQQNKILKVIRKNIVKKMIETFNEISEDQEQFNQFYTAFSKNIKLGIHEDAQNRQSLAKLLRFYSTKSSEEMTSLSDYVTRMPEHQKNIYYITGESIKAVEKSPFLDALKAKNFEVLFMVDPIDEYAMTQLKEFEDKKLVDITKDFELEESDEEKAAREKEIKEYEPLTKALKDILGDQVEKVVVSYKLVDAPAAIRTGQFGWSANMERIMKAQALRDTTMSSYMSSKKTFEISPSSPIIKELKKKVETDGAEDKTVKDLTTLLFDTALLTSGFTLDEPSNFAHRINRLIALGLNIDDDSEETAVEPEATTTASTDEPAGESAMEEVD
Chain of Glyceraldehyde-3-phosphate dehydrogenase (P04406 whole entry): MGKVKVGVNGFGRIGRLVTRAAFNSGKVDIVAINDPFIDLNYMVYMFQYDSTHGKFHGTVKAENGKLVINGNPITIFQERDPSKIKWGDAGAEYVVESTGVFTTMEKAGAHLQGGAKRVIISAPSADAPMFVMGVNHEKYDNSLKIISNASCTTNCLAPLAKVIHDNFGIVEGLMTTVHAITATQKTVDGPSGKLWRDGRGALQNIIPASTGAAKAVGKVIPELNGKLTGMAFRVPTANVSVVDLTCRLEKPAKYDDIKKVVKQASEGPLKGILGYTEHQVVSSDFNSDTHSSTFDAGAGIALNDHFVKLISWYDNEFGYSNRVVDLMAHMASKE

As for `Cc1ccc(NC(=O)COc2ccc(C(=O)NCCc3ccccc3)cc2)cc1`, the EC50 in [1] and in [2] was > 112 µM (not active) throughout.

On to `CO[C@@H]1CN(C)C(=O)c2cc(NC(=O)c3ccc(Oc4ccccc4)cc3)ccc2OC[C@@H](C)NC[C@@H]1C`, for which, in assay [3], the AC50 is 20.7 µM (active).

Regarding `O=S(=O)(Nc1ccc(O)c2ccccc12)c1ccc(OC(F)(F)F)cc1`, the EC50 in assay [4] was > 195 µM (not active); on Protein RecA it was 66.6 nM (active). Further, the AC50 is > 52 µM (inactive) in assay [5], 260 nM (active) in assay [6], 24.9 µM (active) in assay [7] and 6.55 µM (active) in assay [8].

`COc1ccc(C2C(C#N)=C(N)Oc3c2ccc2cccnc32)cc1OC` (stereo not drawn): the AC50 in the assay on INS1 was 6.75 µM (active). Also, the EC50 in assay [9] was 19.1 µM (inconclusive); in assay [10], 5.01 µM (active); in assay [11] it was > 150 µM (inactive); in assay [12], > 180 µM (inactive).

`C[C@H](CO)N1C[C@H](C)[C@@H](CN(C)Cc2ccc3c(c2)OCO3)Oc2ccc(NC(=O)Nc3ccc4c(c3)OCO4)cc2CC1=O`: the AC50 in assay [3] is > 42 µM (inactive); in [13], 4.28 µM (active).

On to `CN(C)CCN(Cc1ccccc1)S(=O)(=O)c1ccc(-c2ccc(O)nn2)s1`, for which the 50% effective concentration (EC50) was > 112 µM (not active) in assay [1] and 6.77 µM (active) in [2].

`C[C@@H]1CN(C2=C(Cl)C(=O)N(c3ccc(Cl)nc3)C2=O)CCN1`: the IC50 in assay [14] is > 50 µM (inconclusive).

As to `CCOC(=O)c1c(N=C(S)NCC2CCCO2)sc(C)c1C` (stereo not drawn), the EC50 in [9] was > 150 µM (inactive); in [10], 0.635 µM (active); in assay [11], 16.9 µM (active); in assay [12], > 180 µM (inactive).

For `COc1ccc(S(=O)(=O)N2CCCCN3[C@@H](CO)[C@@H](c4ccc(C#CCC(C)C)cc4)[C@@H]3C2)cc1`, the AC50 was 18.9 µM (active) in assay [3] and 1.63 µM (active) in [13].

Consider `O=C(c1cc(COc2c(F)cccc2F)on1)N1CCC(c2ccncc2)CC1`, for which, in the assay on HEK293 [15], the EC50 is 2.64 µM (active). Further, the AC50 in assay [16] is 6.75 µM (active); in [17] it was 2.31 µM (active); in assay [18], 1.6 µM (active). For the same compound, the IC50 in the assay with HEK293 [19] is 9.14 µM (active); in the assay with HEK293 [20] it was > 20 µM (inactive); in the assay on HEK293 [21], 17.1 µM (inactive).

`C[C@@H]1CN([C@@H](C)CO)C(=O)c2c(c3ccccc3n2C)-c2ccccc2CO[C@@H]1CN(C)Cc1cccc(C(F)(F)F)c1`: the AC50 in assay [3] was 14 µM (active); in assay [13], 1.64 µM (active).

For the compound `Cc1cc2c(cc1C)NC(c1ccccn1)C1=C(O)CC(C)(C)CC1=N2` (stereo not drawn), the EC50 in assay [1] and in [2] was > 112 µM (not active) throughout.

`CC(NS(C)(=O)=O)C(c1cccs1)N1CCN(Cc2ccccc2)CC1` (stereo not drawn): the EC50 in assay [1] and in [2] was > 112 µM (not active) in each case.
